Data on ten compounds can be found in US5366981A, “N-acyl-substituted azacyclic compounds, processes for their preparaion, and their use as pharmaceuticals” (Dr Lo Zambeletti S.p.A., priority 1989, dated 1994).

The test system of test [1] is mice. The experiment in a line: Tail-flick test in mice. The format is in vivo, Male Charles River mice (Swiss Strain). To be noted: Mus musculus, sc, 0.5 h; s.c.; 30 min pretreatment; quantal protection (reaction time doubled); read-out: ANALGESIA MOUSE TAIL-FLICK ED50. How it is done: B) Tail-flick test in mice
The methodology employed is based on that described by D'Amour and Smith, J. Pharmacol. Exp. Ther. 72, 74/1941.
Male Charles River mice (Swiss Strain), 22-34 g body weight were used. Animals were allowed food and water ad libitum and were randomized into groups of 10 prior to experimentation.
Test compounds were dissolved in either distilled water or distilled water plus 0.1M AMS and administered by the subcutaneous route in a final volume of 10 ml/Kg. Control animals received 10 ml/kg of the appropriate vehicle alone. Following a pretreatment period of 30 min., the mice were again placed under the heat source and the reaction tine re-determined.
Percentage quantal protection was determined as the number of mice in which the reaction time was doubled compared to pretreatment values, expressed as a percentage of the total number of mice in the group.

Test [2] deals with mice. Briefly: P-phenylquinone-induced abdominal writhing test in mice. The format is in vivo, Male Charles River mice (Swiss Strain). To be noted: Mus musculus, sc, 20 min; s.c.; 20 min pretreatment; p-phenylquinone 2 mg/Kg i.p.; graded protection; read-out: ANALGESIA MOUSE WRITHING ED50. How it is done:
A) P-phenylquinone-induced abdominal writhing test in mice
The methodology employed is based on that described by Sigmund et al, Proc. Soc. Exptl. Biol. 95, 729/1957, modified by Milne and Twomey, Agents and Actions, 10, 31/1980.
Male Charles River mice (Swiss Strain), 25-36 g body weight, were used. Animals were allowed food and water ad libitum and were randomized into groups of 10 prior to experimentation. Test compounds were dissolved in either distilled water or distilled water plus 0.1M AMS, and administered by the subcutaneous route in a final volume of 10 ml/Kg. Control animals received 10 ml/Kg of the appropriate vehicle alone. Following a pretreatment period of 20 min., mice were injected intraperitoneally with p-phenylquinone, 2 mg/Kg at 37° C. in a final volume of […]. […] During this period the number of abdominal writhing responses per animal were recorded where writhing consists of an intermittent contraction of the abdomen associated with hind leg extension.
The degree of antinociceptive protection afforded by the test compound was determined as the mean number of writhing responses observed in the treated group (T) expressed as a percentage of the mean number of writhing responses in the control group (C) according to the following formula:
[1-(T/C]×100%=% graded protection

Where a name gives a salt, the structure may show the parent alone.

As to `O=C(Cc1ccc(Cl)c(Cl)c1)N1CCc2ccccc2C1CN1CC=CC1` (centres unmarked) [Example 5, 1-(3-pyrrolin-1-yl)methyl-2-(3,4-dichlorophenyl)acetyl-1,2,3,4-tetrahydroisoquinoline hydrochloride], the ED50 turned out to be 0.015 mg/kg in test [1] and 0.005 mg/kg in test [2].
For `CC1(C)CN(C(=O)Cc2ccc(Cl)c(Cl)c2)C(CN2CC=CC2)c2ccccc21` (centres unmarked) [Example 6, 1-(3-pyrrolin-1-yl)methyl-2-(3,4-dichlorophenyl)acetyl-4,4-dimethyl-1,2,3,4-tetrahydroisoquinoline hydrochloride], in that order: 0.275 mg/kg and 0.047 mg/kg.
For `CC1(C)CN(C(=O)Cc2ccc(Cl)c(Cl)c2)C(CN2CC=CC2)c2ccsc21.Cl` (centres unmarked) [Example 8, 4-(3-pyrrolin-1-yl)methyl-5-(3,4-dichlorophenyl)acetyl-7,7-dimethyl-4,5,6,7-tetrahydrothieno[3,2-c]pyridine hydrochloride], in that order: 0.55 mg/kg and 0.04 mg/kg.
For `O=C1CCCc2cc(CC(=O)N3CCCC[C@H]3CN3CC=CC3)ccc21` [Example 9, (2S)-1-[1-oxo-3,4-dihydro-(2H)-napht-6-yl]acetyl-2-(3-pyrrolin-1-yl)methyl piperidine hydrochloride], in that order: 0.316 mg/kg and 0.023 mg/kg.
`CC1(C)CCCN(C(=O)Cc2ccc3c(c2)CCCC3)C1CN1CC=CC1` (centres unmarked) [Example 4, 1-(5,6,7,8-tetrahydronapht-2-yl)acetyl-2-(3-pyrrolin-1-yl) methyl-3,3-dimethyl piperidine hydrochloride]: the ED50 stood at 0.193 mg/kg in test [1] and 0.025 mg/kg in test [2].
`O=C(Cc1ccc(Cl)c(Cl)c1)N1CCc2sccc2C1CN1CC=CC1` (centres unmarked) [Example 7, 4-(3-pyrrolin-1-yl)methyl-5-(3,4-dichlorophenyl)acetyl-4,5,6,7-tetrahydrothieno[3,2-c]pyridine hydrochloride hemihydrate]: the ED50 in test [1] was determined as 0.008 mg/kg; in test [2], 0.002 mg/kg.
The like results for `CC1(C)CCCN(C(=O)Cc2ccc(Cl)c(Cl)c2)C1CN1CC=CC1` (centres unmarked) [Example 2, 1-(3,4-dichlorophenyl)acetyl-2-(3-pyrrolin-1-yl)methyl-3,3-dimethyl piperidine hydrochloride] were, in that order, 0.021 mg/kg and 0.006 mg/kg.
The like results for `CC1(C)CCCN(C(=O)Cc2ccc(C(F)(F)F)cc2)C1CN1CC=CC1` (centres unmarked) [Example 3, 1-(4-trifluoromethylphenyl)acetyl-2-(3-pyrrolin-1-yl)methyl-3,3-dimethyl piperidine hydrochloride] were, in that order, 0.015 mg/kg and 0.006 mg/kg.
For `CC1(C)CCCN(C(=O)Cc2ccc3c(c2)CCCC3=O)C1CN1CC=CC1` (centres unmarked) [Example 10, 1-[1-oxo-3,4-dihydro-(2H)-napht-6-yl]acetyl-2-(3-pyrrolin-1-yl)methyl-3,3-dimethyl piperidine hydrochloride], in that order: 0.594 mg/kg and 0.053 mg/kg.
Take `O=C(Cc1ccc(Cl)c(Cl)c1)N1CCCC[C@H]1CN1CC=CC1` [Example 1, (2S)-1-(3,4-dichlorophenyl)acetyl-2-(3-pyrrolin-1-yl)methyl piperidine hydrochloride]: the ED50 in test [1] came to 0.045 mg/kg; in test [2], 0.005 mg/kg.
